Drawing on patent US5656603A (Loyola University of Chicago, priority 1995, dated 1997), this text covers IC50 for one molecule.

What all share (assay type): biochemical
Experiment [1] has as its target T1, aminopeptidase M (EC 3.4.11.2) (Sus scrofa, UniProt P15145).
T1 construct: Purified porcine kidney prolidase and purified porcine kidney aminopeptidase M was obtained from Sigma; purchased Sigma (St. Louis, Mo.); host or cells: porcine kidney
T1 sequence (P15145 1-963): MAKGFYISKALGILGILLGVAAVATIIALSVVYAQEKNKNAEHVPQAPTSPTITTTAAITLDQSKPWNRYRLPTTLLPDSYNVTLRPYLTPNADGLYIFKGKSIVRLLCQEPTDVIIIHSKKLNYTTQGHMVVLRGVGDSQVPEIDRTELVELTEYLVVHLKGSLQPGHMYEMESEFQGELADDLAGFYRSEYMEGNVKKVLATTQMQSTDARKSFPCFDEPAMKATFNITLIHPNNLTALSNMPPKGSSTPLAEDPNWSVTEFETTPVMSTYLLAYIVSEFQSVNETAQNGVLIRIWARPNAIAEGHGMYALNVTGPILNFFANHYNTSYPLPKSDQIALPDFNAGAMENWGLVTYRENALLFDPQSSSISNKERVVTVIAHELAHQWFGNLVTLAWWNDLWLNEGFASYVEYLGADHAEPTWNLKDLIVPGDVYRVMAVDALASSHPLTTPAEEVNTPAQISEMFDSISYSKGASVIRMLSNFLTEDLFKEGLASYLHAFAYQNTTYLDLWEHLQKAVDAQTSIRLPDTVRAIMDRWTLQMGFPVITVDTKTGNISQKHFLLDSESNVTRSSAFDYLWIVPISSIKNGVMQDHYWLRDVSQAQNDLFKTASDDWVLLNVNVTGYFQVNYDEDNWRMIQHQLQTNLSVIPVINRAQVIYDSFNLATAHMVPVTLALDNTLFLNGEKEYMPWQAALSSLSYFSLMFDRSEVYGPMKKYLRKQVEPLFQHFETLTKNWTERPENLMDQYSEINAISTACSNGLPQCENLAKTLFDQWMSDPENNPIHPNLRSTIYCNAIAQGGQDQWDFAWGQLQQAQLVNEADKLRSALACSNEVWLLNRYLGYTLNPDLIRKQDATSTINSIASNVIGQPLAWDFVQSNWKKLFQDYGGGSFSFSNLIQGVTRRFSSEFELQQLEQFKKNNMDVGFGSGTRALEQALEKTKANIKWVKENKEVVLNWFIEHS
In words: Specificity of apstatin: aminopeptidase M. Conditions: purified, porcine kidney; Ala-β-NA, pH 6.8, FLUO. As to the method:
(§1) Specificity of Apstatin--Apstatin was assayed for its ability to inhibit several other peptidases. […] Unless otherwise indicated, the source of each enzyme activity was a detergent extract of bovine lung prepared as described in (12-13). Activities were determined by a modification of the fluorescent assay described above (indicated by "FLUO") or by HPLC separation and quantitation of reaction products using the method described in (12) (method "HPLC-1") or the method described below (method "HPLC-2"). […]

Experiment [2] addresses dipeptidyl-peptidase I-like activity. Briefly: Specificity of apstatin: dipeptidyl-peptidase I-like activity. Conditions: detergent extract of bovine lung; Gly-Phe-β-NA, pH 6.5, HPLC-2. The procedure: as §1
For experiment [3], the target named is T2, microsomal dipeptidase (Rattus norvegicus, UniProt P31430).
T2 construct: Membrane dipeptidase was purified from rat lung microsomes; from tissue; host or cells: rat lung microsomes
T2 sequence (P31430 17-410): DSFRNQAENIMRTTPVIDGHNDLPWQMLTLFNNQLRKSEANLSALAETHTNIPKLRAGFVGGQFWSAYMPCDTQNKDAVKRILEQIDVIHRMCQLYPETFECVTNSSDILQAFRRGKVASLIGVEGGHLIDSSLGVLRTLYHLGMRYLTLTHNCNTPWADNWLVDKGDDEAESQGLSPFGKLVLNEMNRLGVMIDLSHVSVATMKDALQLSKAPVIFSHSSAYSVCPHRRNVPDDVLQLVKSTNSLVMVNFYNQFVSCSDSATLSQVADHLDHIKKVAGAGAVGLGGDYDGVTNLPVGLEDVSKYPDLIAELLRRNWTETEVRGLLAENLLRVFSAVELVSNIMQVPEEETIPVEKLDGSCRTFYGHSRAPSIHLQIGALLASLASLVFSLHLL
Briefly: Specificity of apstatin: microsomal (membrane) dipeptidase. The following applies: purified, rat lung; Gly-D-Phe, pH 8.0, HPLC-1.
Excerpt: Enzymes--Membrane-bound aminopeptidase P was purified to homogeneity from bovine lung (14) and from rat lung. Partially purified membrane-bound aminopeptidase P from human lung was obtained by treatment of lung microsomes with phosphatidylinositol-specific phospholipase C (B. thuringiensis) (ICN, Costa Mesa, Calif.) followed by centrifugation as described previously (14). Membrane dipeptidase was purified from rat lung microsomes (manuscript in preparation). Recombinant E. coli aminopeptidase P (22) and purified lamb kidney prolyl oligopeptidase (23) were generally supplied by Dr. Tadashi Yoshimoto (Nagasaki University). Purified porcine kidney prolidase and purified porcine kidney aminopeptidase M was obtained from Sigma (St. Louis, Mo.).
as §1

What is called IC50 is the midpoint of a concentration-inhibition curve.

With `C[C@H](NC(=O)[C@@H]1CCCN1C(=O)[C@@H]1CCCN1C(=O)[C@@H](O)[C@H](N)Cc1ccccc1)C(N)=O` [apstatin, N-[(2S, 3R)-3-amino-2-hydroxy-4-phenylbutanoyl]-L-prolyl-L-prolyl-Lalaninamide], the IC50 in experiment [1] was 600 µM; in experiment [2] it was more than 800 µM; in experiment [3] it was more than 800 µM.
